Active and inactive are the calls of the source. The calls are words filed in the database; no cut-off is given here.
Columns and labels:
C6 [1] = assay: Cytotoxicity against rat C6 cells assessed as reduction in cell viability at 5 to 50 uM after 72 hrs by MTT assay; type: functional, cell-based
C6 [2] = assay: Cytotoxicity against rat C6 cells assessed as reduction in cell viability after 72 hrs by MTT assay; type: functional, cell-based
C6 [3] = assay: Cytotoxicity against rat C6 cells assessed as reduction in cell viability at 5 uM after 72 hrs by MTT assay relative to control; type: functional
C6 [4] = assay: Cytotoxicity against rat C6 cells assessed as reduction in cell viability at 10 uM after 72 hrs by MTT assay relative to control; type: functional
U138-MG [5] = assay: Cytotoxicity against human U138MG cells assessed as reduction in cell viability at 150 uM relative to control; type: functional
C6 [6] = assay: Cytotoxicity against rat C6 cells assessed as reduction in cell viability at 150 uM relative to control; type: functional
U138-MG [7] = assay: Cytotoxicity against human U138MG cells assessed as reduction in cell viability at 10 uM relative to control; type: functional
C6 [8] = assay: Cytotoxicity against rat C6 cells assessed as reduction in cell viability at 25 to 50 uM after 72 hrs by MTT assay; type: functional, cell-based
C6 [9] = assay: Cytotoxicity against rat C6 cells assessed as reduction in cell viability at 50 uM after 72 hrs by MTT assay relative to control; type: functional

## CCOC(=O)C1=C(C)NC2=C(C(=O)CC(C)(C)C2)C1c1ccccc1 (stereo not given)
C6 [1]
  Activity: Active

## CCCCCCCCCCCCCCCCCCOC(=O)C1=C(C)NC2=C(C(=O)CC(C)(C)C2)C1c1cccc(O)c1 (stereo not given)
C6 [2]
  Activity: Dose-dependent effect
C6 [3]
  Activity: 40%

## CCCCCCCCCCCCCCCCOC(=O)C1=C(C)NC2=C(C(=O)CC(C)(C)C2)C1c1cccc(O)c1 (stereo not given)
C6 [2]
  Activity: Dose-dependent effect
C6 [4]
  Activity: 40%

## O=Cc1cccc(O)c1 [3-HYDROXYBENZALDEHYDE]
U138-MG [5]
  Activity: 30%
C6 [6]
  Activity: 30%

## CCCCCCCCCCCCCCCCOC(=O)C1=C(C)NC(=O)NC1c1cccc(O)c1 (stereo not given)
U138-MG [7]
  Activity: 50%

## CCCCCCCCCCCCCCCCCCOC(=O)C1=C(C)NC2=C(C(=O)CC(C)(C)C2)C1c1ccc(OC)cc1 (stereo not given)
C6 [2]
  Activity: Dose-dependent effect

## CCCCCCCCCCCCCCCCCCOC(=O)C1=C(C)NC2=C(C(=O)CC(C)(C)C2)C1c1cccc([N+](=O)[O-])c1 (stereo not given)
C6 [2]
  Activity: Dose-dependent effect
C6 [8]
  Activity: inactive

## CCOC(=O)C1=C(C)NC(=S)NC1c1cccc(O)c1 (stereo not given) [MONASTROL]
C6 [9]
  Activity: 50%

## CCCCCCCCCCCCCCCCOC(=O)C1=C(C)NC2=C(C(=O)CC(C)(C)C2)C1c1ccccc1 (stereo not given)
C6 [2]
  Activity: Dose-dependent effect

## CCCCCCCCCCCCCCCCCCOC(=O)C1=C(C)NC2=C(C(=O)CC(C)(C)C2)C1c1cccc(OC)c1 (stereo not given)
C6 [2]
  Activity: Dose-dependent effect
C6 [8]
  Activity: inactive

— ChEMBL document CHEMBL4190177 (2016)
